{"source": "patent US20240408119A1", "about": "“DELIVERY OF THERAPEUTIC ALKALOID COMPOUNDS” (priority 2022, published 2024)", "key": {"in vivo": {"assay": "in vivo", "format": "in vivo, mouse", "settings": "for half-life / C0 / clearance / Vd: iv, 2 mg/kg; for C0: back extrapolated; for clearance: flagged NR (not reportable, very high vs liver blood flow); for Vd: read-out: Vss", "method": "Total fifteen male mice were used in this study with n=3 mice/time point with sparse sampling study design. Animals were administered through intravenous route with solution formulation of 323 at 2 mg/kg dose.\nThe extraction procedure for plasma/brain samples and the spiked plasma/brain calibration standards were identical (PMSF Stabilized Plasma and Brain used for Preparation of calibration standards): A 20 μL of study sample plasma/brain or spiked plasma/brain calibration standard was added to individual pre-labeled micro-centrifuge tubes followed by 200 μL of internal standard prepared in acetonitrile (Rosuvastatin+Cetrizine, 50 ng/mL) was added except for blank, where 200 μL of acetonitrile was added. Samples were vortexed for 5 minutes. Samples were centrifuged for 10 minutes at a speed of 4000 rpm at 4° C. Following centrifugation, 200 μL of clear supernatant was transferred in 96 well plates and analyzed using LC-MS/MS.\nBrain samples were diluted (1-part of tissue: 2-part of buffer) and homogenized. The homogenate was submitted for bioanalysis and the concentrations (ng/mL) received were corrected with dilution factor (3×) and the final reported concentrations were represented in ng/g.\nThe plasma and brain concentration-time data of 323 and 001 were used for the pharmacokinetic analysis.\nLLOQ: 323: 1.02 ng/mL for plasma and brain 001: 1.01 ng/mL for plasma and brain"}, "[1]": {"assay": "Plasma Stability Assay (Example A3), rat plasma", "format": "in vitro ADME", "settings": "prodrug remaining, 10 μM, 37° C.", "excerpt": "The data is represented in the table below."}, "[2]": {"assay": "Metabolic Stability in Human Hepatocytes", "format": "in vitro ADME", "settings": "cryopreserved human hepatocytes, 37° C.", "summary_of_the_method": "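Cryopreserved human hepatocytes at 5×10^5 viable cells/mL in serum-free medium, 100 μM compound stock added 1:100, 37° C. with shaking, sampled 0.5–120 min. Acetonitrile quench, LC-MS/MS; t1/2 = 0.693/k from regression slope, CLint = kV/N in μL/min/10^6 cells.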"}, "[3]": {"assay": "Hydrolysis Assay - Condition 1 (SGF)", "format": "physicochemical", "settings": "SGF with pepsin pH 1.5, 37° C., 0.5 mM"}, "SERT": {"target": "SERT (Homo sapiens (Human), UniProt P31645)", "assay": "SERT Inhibition Assay (Neurotransmitter Transporter Fluorescence assay, stable 5HTT cells)", "format": "cell-based", "method": "SERT inhibition was measured using a Neruotransmitter Transportation Fluorescence assay. Briefly, stable 5HTT cells were prepared in a 384 microwell plate. Compounds were prepared by in assay buffer (20 mM HEPES, 0.1% BSA). The compounds were added to the plated cells and incubated for 30 minutes at 37° C. 25 μL of dye solution (Molecular Devices Neurotransmitter Transporter Uptake Assay Kit) was added per well and incubated for 30 minutes at 37° C. The plates were then read on a plate reader."}, "[4]": {"format": "in vitro ADME, mouse", "settings": "prodrug remaining, 5 μM, 37° C.", "method": "(§1) Each test was carried out in duplicate for each time point; 0 min, 15 min, 30 min, 60 min, 120, 240 min. […]"}, "[5]": {"format": "in vitro ADME, human", "settings": "prodrug remaining, 5 μM, 37° C.", "method": "as §1"}, "[6]": {"assay": "Hydrolysis Assay - Condition 2 (DI Water)", "format": "physicochemical", "settings": "25° C., 0.5 mM"}, "[7]": {"settings": "male, C57BL/6, mouse, in vivo, 323 in brain after 323 IV 2 mg/kg"}, "[8]": {"settings": "male, C57BL/6, mouse, in vivo, 323 in plasma after 323 IV 2 mg/kg"}, "[9]": {"settings": "male, C57BL/6, mouse, in vivo, 323 after 323 IV 2 mg/kg, read-out: Brain concentrations (mean)"}, "[10]": {"settings": "male, C57BL/6, mouse, in vivo, 323 after 323 IV 2 mg/kg, read-out: Plasma concentrations (mean)"}}, "note": "Like-named read-outs stand apart in the source and are kept apart here."}
{"smiles": "COc1ccc([C@@]23CCC(OP4(=O)OCC(C)(C)CO4)=C[C@@H]2N(C)CC3)cc1OC", "note": "[Compound 323, 2-[[(3aS,7aS)-3a-(3,4-dimethoxyphenyl)-1-methyl-3,4,5,7a-tetrahydro-2H-indol-6-yl]oxy]-5,5-dimethyl-1,3,2λ^5-dioxaphosphinane 2-oxide]", "values": [{"measurement": "brain concentrations quantifiable up to", "setting": "in vivo; 323 after 323 IV 2 mg/kg", "result": "≤ 0.5", "unit": "h"}, {"measurement": "plasma concentrations quantifiable up to", "setting": "in vivo; 323 after 323 IV 2 mg/kg", "result": "up to 2 h"}, {"measurement": "AUClast", "setting": "in vivo; 323 in brain after 323 IV 2 mg/kg", "result": 6.56, "unit": "ng·h/g"}, {"measurement": "half-life", "setting": "in vivo; [7]", "result": 10.8, "unit": "min"}, {"measurement": "C0", "setting": "in vivo; [7]", "result": 33.9, "unit": "ng/mL"}, {"measurement": "clearance", "setting": "in vivo; [7]", "result": 4350, "unit": "mL/min/kg"}, {"measurement": "Vd", "setting": "in vivo; [7]", "result": 61.7, "unit": "L/kg"}, {"measurement": "half-life", "setting": "in vivo; [8]", "result": 10.2, "unit": "min"}, {"measurement": "C0", "setting": "in vivo; [8]", "result": 609, "unit": "ng/mL"}, {"measurement": "clearance", "setting": "in vivo; [8]", "result": 344, "unit": "mL/min/kg"}, {"measurement": "Vd", "setting": "in vivo; [8]", "result": 3.25, "unit": "L/kg"}, {"measurement": "concentration at 0.08 h", "setting": "in vivo; [9]", "result": 22.1, "unit": "ng/g"}, {"measurement": "concentration at 0.08 h", "setting": "in vivo; [10]", "result": 332, "unit": "ng/mL"}, {"measurement": "concentration at 0.25 h", "setting": "in vivo; [9]", "result": 8.97, "unit": "ng/g"}, {"measurement": "concentration at 0.25 h", "setting": "in vivo; [10]", "result": 91.6, "unit": "ng/mL"}, {"measurement": "concentration at 0.5 h", "setting": "in vivo; male, C57BL/6, mouse, in vivo, 323 after 323 IV 2 mg/kg, average of two values, read-out: Brain concentrations (mean)", "result": 4.43, "unit": "ng/g"}, {"measurement": "concentration at 0.5 h", "setting": "in vivo; [10]", "result": 26.3, "unit": "ng/mL"}, {"measurement": "concentration at 1 h", "setting": "in vivo; male, C57BL/6, mouse, in vivo, 323 after 323 IV 2 mg/kg, 1 h, read-out: Plasma concentrations (mean)", "result": 4.05, "unit": "ng/mL"}, {"measurement": "concentration at 2 h", "setting": "in vivo; male, C57BL/6, mouse, in vivo, 323 after 323 IV 2 mg/kg, 2 h, single value, excluded from data analysis, read-out: Plasma concentrations (mean)", "result": 1.03, "unit": "ng/mL"}, {"measurement": "Kp", "setting": "in vivo; male, C57BL/6, mouse, in vivo, 323 after 323 IV 2 mg/kg, read-out: Brain-Kp", "result": 0.07}, {"measurement": "AUC(0-t)", "setting": "in vivo; [8]", "result": 96, "unit": "ng·h/mL"}, {"measurement": "Rat Plasma Prodrug (%)", "setting": "[1]; 0 min", "result": 100.00, "unit": "%"}, {"measurement": "Rat Plasma Prodrug (%)", "setting": "[1]; 10 min", "result": ">99", "unit": "%"}, {"measurement": "Rat Plasma Prodrug (%)", "setting": "[1]; 30 min", "result": 95.5, "unit": "%"}, {"measurement": "Rat Plasma Prodrug (%)", "setting": "[1]; 60 min", "result": 82.0, "unit": "%"}, {"measurement": "Rat Plasma Prodrug (%)", "setting": "[1]; 120 min", "result": 58.8, "unit": "%"}, {"measurement": "Rat Plasma Prodrug (%)", "setting": "[1]; 240 min", "result": 34.0, "unit": "%"}, {"measurement": "half-life at 1 μM", "setting": "[2]", "result": 327, "unit": "min"}, {"measurement": "hepatocyte CLint at 1 μM", "setting": "[2]", "result": 4.2, "unit": "µL/min/1e6 cells"}, {"measurement": "Condition 1 Conversion (%)", "setting": "[3]; 1 min", "result": 0, "unit": "%"}, {"measurement": "Condition 1 Conversion (%)", "setting": "[3]; 5 min", "result": 0, "unit": "%"}, {"measurement": "Condition 1 Conversion (%)", "setting": "[3]; 30 min", "result": 0, "unit": "%"}, {"measurement": "Condition 1 Conversion (%)", "setting": "[3]; 1 h", "result": 0, "unit": "%"}, {"measurement": "Condition 1 Conversion (%)", "setting": "[3]; 4 h", "result": 0, "unit": "%"}, {"measurement": "Condition 1 Conversion (%)", "setting": "[3]; 24 h", "result": 0, "unit": "%"}, {"measurement": "IC50", "setting": "SERT", "result": 62.7, "unit": "nM"}, {"measurement": "Mouse Plasma Prodrug (%)", "setting": "[4]; 0 min", "result": 100.0, "unit": "%"}, {"measurement": "Mouse Plasma Prodrug (%)", "setting": "[4]; 15 min", "result": ">99", "unit": "%"}, {"measurement": "Mouse Plasma Prodrug (%)", "setting": "[4]; 30 min", "result": ">99", "unit": "%"}, {"measurement": "Mouse Plasma Prodrug (%)", "setting": "[4]; 60 min", "result": 94.1, "unit": "%"}, {"measurement": "Mouse Plasma Prodrug (%)", "setting": "[4]; 120 min", "result": 71.9, "unit": "%"}, {"measurement": "Mouse Plasma Prodrug (%)", "setting": "[4]; 240 min", "result": 50.3, "unit": "%"}, {"measurement": "Human Plasma Prodrug (%)", "setting": "[5]; 0 min", "result": 100, "unit": "%"}, {"measurement": "Human Plasma Prodrug (%)", "setting": "[5]; 15 min", "result": 76.6, "unit": "%"}, {"measurement": "Human Plasma Prodrug (%)", "setting": "[5]; 30 min", "result": 64.5, "unit": "%"}, {"measurement": "Human Plasma Prodrug (%)", "setting": "[5]; 60 min", "result": 38.1, "unit": "%"}, {"measurement": "Human Plasma Prodrug (%)", "setting": "[5]; 120 min", "result": 12.8, "unit": "%"}, {"measurement": "Human Plasma Prodrug (%)", "setting": "[5]; 240 min", "result": 1.60, "unit": "%"}, {"measurement": "Condition 2 Conversion (%)", "setting": "[6]; 1 min", "result": 0, "unit": "%"}, {"measurement": "Condition 2 Conversion (%)", "setting": "[6]; 5 min", "result": 0, "unit": "%"}, {"measurement": "Condition 2 Conversion (%)", "setting": "[6]; 30 min", "result": 0, "unit": "%"}, {"measurement": "Condition 2 Conversion (%)", "setting": "[6]; 1 h", "result": 0, "unit": "%"}, {"measurement": "Condition 2 Conversion (%)", "setting": "[6]; 4 h", "result": 0, "unit": "%"}, {"measurement": "Condition 2 Conversion (%)", "setting": "[6]; 24 h", "result": 0, "unit": "%"}]}
